Starred links: 1 amine or outer side, 2 acyl side, 3 side chain; linkers in the order of their positions; H or OH if unused. Positions of bridges follow the written chain, without caps; N, C: chain ends. Non-standard residues stand in square brackets, D forms with d. Residues, ends and D or L forms follow the SMILES beside them. Groups on a side chain read outwards from the residue. *: point of attachment. X14 = NC(=O)[C@H](CCCCN*)NC(=O)COCCOCCNC(=O)COCCOCCNC(=O)CC[C@H](NC(=O)CC[C@H](NC(=O)CCCCCCCCCCCCCCC(=O)O)C(=O)O)C(=O)O; X3 = NC(=O)[C@H](CCCCN*)NC(=O)CC[C@H](NC(=O)CC[C@H](NC(=O)CCCCCCCCCCCCCCC(=O)O)C(=O)O)C(=O)O; X10 = NC(=O)[C@H](CCCCN*)NC(=O)CC[C@H](NC(=O)CC[C@H](NC(=O)CCCc1ccc(I)cc1)C(=O)O)C(=O)O; X5 = NC(=O)[C@H](CCCCN*)NC(=O)CC[C@H](NC(=O)CC[C@H](NC(=O)CCCCCc1ccccc1)C(=O)O)C(=O)O; X20 = CC(=O)N[C@@H](CCC(=O)N[C@@H](CCC(=O)N[C@@H](CCCCN*)C(N)=O)C(=O)O)C(=O)O; Trp(1-CH2CO) = O=C([C@H](Cc1cn(CC(=O)[*:3])c2ccccc12)N[*:1])[*:2]; Trp(5-OMe) = COc1ccc2[nH]cc(C[C@H](N)C(=O)O)c2c1; Butanoyl(4-(4-I-phenyl)) = O=C(CCCc1ccc(I)cc1)*; Trp(5-OH) = N[C@@H](Cc1c[nH]c2ccc(O)cc12)C(=O)O; Phe(4-COOH) = N[C@@H](Cc1ccc(C(=O)O)cc1)C(=O)O; Piperazinyl(4-CH2COOH) = O=C(O)CN1CCN(*)CC1; X7 = O=C(O)CN1CCC(N[*:1])(C(=O)[*:2])CC1; γGlu = O=C(O)[C@H](CCC(=O)[*:2])N[*:1]; X2 = O=C([C@@H]1CCCN1[*:2])[*:1]; NMeK = CN[C@@H](CCCCN)C(=O)O; X4 = O=C(CN[*:2])[*:1]; Aib = CC(C)(N)C(=O)O; CO = O=C([*:1])[*:2]
molecular target: T1, Recombinant human GhR-Fc protein (Homo sapiens, UniProt P10912); assay: SPR binding assay (Biacore T200, single-cycle kinetics) of peptides against immobilized human GhR-Fc; conditions: SPR, hGhR; Table 1 bicyclic peptides; KD calculated from ka and kd; read-out: KD
T1 construct: purchased R&D Systems
Method: SPR assay was performed using Biacore T200 (cytiva: Former GE Healthcare). After the equilibration of Series S Sensor Chip CM5 (produced by cytiva: Former GE Healthcare) with Running Buffer (HBS-EP with 1% (v/v) DMSO), an EDC/NHS mixture was injected at a flow rate of 10 μL/min for 7 minutes to thereby activate the functional groups on sensor chip. Recombinant human GhR-Fc protein (R&D Systems) in 10 mM Acetate (pH 4.0) was injected immobilized to at a flow rate of 5 μL/min. It took 7 minutes to immobilize the GhR on the substrate surfaces of the sensor chip. Then Ethanolamine was injected at a flow rate of 10 μL/min for 7 minutes. 1M Ethanolamine (aq.) was injected at a flow rate of 10 μL/min for 420 seconds for capping.
Using these Peptide Samples, kinetics of peptides against human GhR-Fc protein were measured. The method adopted for sample measurement was a single-cycle kinetics method. The analysis was conducted using the evaluation software provided with Biacore T200. A DMSO correction curve obtained by solvent correction measurements was applied for the analysis. Kinetics fitting was done on the difference data obtained by subtracting the baseline data from sample measurement data. KD values were calculated based on the association rate constant (ka) and dissociation rate constant (kd). […]

T1 sequence (P10912 with tags, fused parts or gaps limits assumed): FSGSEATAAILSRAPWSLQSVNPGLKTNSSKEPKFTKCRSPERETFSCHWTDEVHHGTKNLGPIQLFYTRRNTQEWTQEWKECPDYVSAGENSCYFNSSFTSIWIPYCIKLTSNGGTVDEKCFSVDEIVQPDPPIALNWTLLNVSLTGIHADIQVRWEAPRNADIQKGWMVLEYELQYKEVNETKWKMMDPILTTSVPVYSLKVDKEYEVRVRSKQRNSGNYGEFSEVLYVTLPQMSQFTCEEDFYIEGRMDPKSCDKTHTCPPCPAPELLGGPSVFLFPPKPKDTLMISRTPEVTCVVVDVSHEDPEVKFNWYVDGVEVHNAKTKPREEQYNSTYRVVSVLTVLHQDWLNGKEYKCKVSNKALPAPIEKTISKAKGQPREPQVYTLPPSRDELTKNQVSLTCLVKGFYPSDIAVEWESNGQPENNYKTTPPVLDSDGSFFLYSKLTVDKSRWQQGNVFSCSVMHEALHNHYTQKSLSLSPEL

| SMILES | Kd |
| --- | --- |
| CC(C)[C@@H]1NC(=O)[C@H](C(C)C)NC(=O)[C@@H]2CCCCNC(=O)Cn3cc(c4ccccc43)C[C@H](NC(=O)[C@H](CC(N)=O)NC(=O)[C@H](CO)NC1=O)C(=O)N[C@@H](Cc1ccc(C(=O)O)cc1)C(=O)N[C@@H](CCCCN)C(=O)N[C@@H](Cc1c[nH]c3ccc(O)cc13)C(=O)NC(C)(C)C(=O)N[C@@H](C(C)C)C(=O)N[C@H](C(=O)NCCCC[C@H](NC(=O)CC[C@H](NC(=O)CC[C@H](NC(=O)CCCCCc1ccccc1)C(=O)O)C(=O)O)C(N)=O)CSCC(=O)N[C@@H](Cc1ccc(C(=O)O)cc1)C(=O)N2C [Compound 16] ({CH2CO}-[Phe(4-COOH)][NMeK]VVSN[Trp(1-CH2CO)][Phe(4-COOH)]K[Trp(5-OH)][Aib]VC-X5; lactam 2-7; thioether N-13) | 1.93 nM |
| CC(C)[C@@H]1NC(=O)[C@H](C(C)C)NC(=O)[C@@H]2CCCCNC(=O)CNC(=O)Cn3cc(c4ccccc43)C[C@H](NC(=O)[C@H](CC(N)=O)NC(=O)[C@H](CO)NC1=O)C(=O)N[C@@H](Cc1ccc(O)cc1)C(=O)N[C@@H](CCCCN)C(=O)N[C@@H](Cc1c[nH]c3ccc(O)cc13)C(=O)NC(C)(C)C(=O)N[C@@H](C(C)C)C(=O)N[C@H](C(=O)NCC(N)=O)CSCC(=O)N[C@@H](Cc1ccc(O)cc1)C(=O)N2C [Compound 2] ({CH2CO}-Y[NMeK]VVSN[Trp(1-CH2CO)]YK[Trp(5-OH)][Aib]VCG-NH2; linker 2-7 via X4; thioether N-13; C-terminus assumed) | 1.22 nM |
| CC(=O)N[C@@H](CCC(=O)N[C@@H](CCC(=O)N[C@@H](CCCCNC(=O)[C@@H]1CSCC(=O)N[C@@H](Cc2ccc(C(=O)O)cc2)C(=O)N(C)[C@H]2CCCCNC(=O)Cn3cc(c4ccccc43)C[C@H](NC(=O)[C@H](CC(N)=O)NC(=O)[C@H](CO)NC(=O)[C@H](C(C)C)NC(=O)[C@H](C(C)C)NC2=O)C(=O)N[C@@H](Cc2ccc(C(=O)O)cc2)C(=O)N[C@@H](CCCCN)C(=O)N[C@@H](Cc2c[nH]c3ccc(O)cc23)C(=O)NC(C)(C)C(=O)N[C@@H](C(C)C)C(=O)N1)C(N)=O)C(=O)O)C(=O)O [Compound 58] ({CH2CO}-[Phe(4-COOH)][NMeK]VVSN[Trp(1-CH2CO)][Phe(4-COOH)]K[Trp(5-OH)][Aib]VC-X20; lactam 2-7; thioether N-13) | 3.51 nM |
| CC(C)[C@@H]1NC(=O)[C@H](C(C)C)NC(=O)[C@@H]2CCCCNC(=O)Cn3cc(c4ccccc43)C[C@H](NC(=O)[C@H](CC(N)=O)NC(=O)[C@H](CO)NC1=O)C(=O)N[C@@H](Cc1ccc(O)cc1)C(=O)N[C@@H](CCCCNC(=O)N1CCN(CC(=O)O)CC1)C(=O)N[C@@H](Cc1c[nH]c3ccc(O)cc13)C(=O)NC(C)(C)C(=O)N[C@@H](C(C)C)C(=O)N[C@H](C(=O)NCCCC[C@H](NC(=O)CC[C@H](NC(=O)CC[C@H](NC(=O)CCCCCCCCCCCCCCC(=O)O)C(=O)O)C(=O)O)C(N)=O)CSCC(=O)N[C@@H](Cc1ccc(C(=O)O)cc1)C(=O)N2C [Compound 17] ({CH2CO}-[Phe(4-COOH)][NMeK]VVSN[Trp(1-CH2CO)]YK([CO-Piperazinyl(4-CH2COOH)])[Trp(5-OH)][Aib]VC-X3; lactam 2-7; thioether N-13) | 4.1 nM |
| CC(C)[C@@H]1NC(=O)[C@H](C(C)C)NC(=O)[C@@H]2CCCCNC(=O)Cn3cc(c4ccccc43)C[C@H](NC(=O)[C@H](CC(N)=O)NC(=O)[C@H](CO)NC1=O)C(=O)N[C@@H](Cc1ccc(O)cc1)C(=O)N[C@@H](CCCCN)C(=O)N[C@@H](Cc1c[nH]c3ccc(O)cc13)C(=O)NC1(CCN(CC(=O)O)CC1)C(=O)N[C@@H](C(C)C)C(=O)N[C@H](C(=O)NCCCC[C@H](NC(=O)CC[C@H](NC(=O)CC[C@H](NC(=O)CCCCCCCCCCCCCCC(=O)O)C(=O)O)C(=O)O)C(N)=O)CSCC(=O)N[C@@H](Cc1ccc(O)cc1)C(=O)N2C [Compound 29] ({CH2CO}-Y[NMeK]VVSN[Trp(1-CH2CO)]YK[Trp(5-OH)][X7]VC-X3; lactam 2-7; thioether N-13) | 1.57 nM |
| CC(C)[C@@H]1NC(=O)[C@H](C(C)C)NC(=O)[C@@H]2CCCCNC(=O)Cn3cc(c4ccccc43)C[C@H](NC(=O)[C@H](CC(N)=O)NC(=O)[C@H](CO)NC1=O)C(=O)N[C@@H](Cc1ccc(C(=O)O)cc1)C(=O)N[C@@H](CCCCN)C(=O)N[C@@H](Cc1c[nH]c3ccc(O)cc13)C(=O)NC(C)(C)C(=O)N[C@@H](C(C)C)C(=O)N[C@H](C(=O)NCCCC[C@H](NC(=O)CC[C@H](NC(=O)CC[C@H](NC(=O)CCCc1ccc(I)cc1)C(=O)O)C(=O)O)C(N)=O)CSCC(=O)N[C@@H](Cc1ccc(O)cc1)C(=O)N2C [Compound 26] ({CH2CO}-Y[NMeK]VVSN[Trp(1-CH2CO)][Phe(4-COOH)]K[Trp(5-OH)][Aib]VC-X10; lactam 2-7; thioether N-13) | 1.59 nM |
| CC(C)[C@@H]1NC(=O)[C@H](C(C)C)NC(=O)[C@@H]2CCCCNC(=O)Cn3cc(c4ccccc43)C[C@H](NC(=O)[C@H](CC(N)=O)NC(=O)[C@H](CO)NC1=O)C(=O)N[C@@H](Cc1ccc(C(=O)O)cc1)C(=O)N[C@@H](CCCCN)C(=O)N[C@@H](Cc1c[nH]c3ccc(O)cc13)C(=O)NC(C)(C)C(=O)N[C@@H](C(C)C)C(=O)N[C@H](C(=O)NCCCC[C@H](NC(=O)COCCOCCNC(=O)COCCOCCNC(=O)CC[C@H](NC(=O)CC[C@H](NC(=O)CCCCCCCCCCCCCCC(=O)O)C(=O)O)C(=O)O)C(N)=O)CSCC(=O)N[C@@H](Cc1ccc(C(=O)O)cc1)C(=O)N2C [Compound 64] ({CH2CO}-[Phe(4-COOH)][NMeK]VVSN[Trp(1-CH2CO)][Phe(4-COOH)]K[Trp(5-OH)][Aib]VC-X14; lactam 2-7; thioether N-13) | 3.61 nM |
| CC(C)[C@@H]1NC(=O)[C@H](C(C)C)NC(=O)[C@@H]2CCCCNC(=O)Cn3cc(c4ccccc43)C[C@H](NC(=O)[C@H](CC(N)=O)NC(=O)[C@H](CO)NC1=O)C(=O)N[C@@H](Cc1ccc(O)cc1)C(=O)N[C@@H](CCCCN)C(=O)N[C@@H](Cc1c[nH]c3ccc(O)cc13)C(=O)NC(C)(C)C(=O)N[C@@H](C(C)C)C(=O)N[C@H](C(=O)NCCCC[C@H](NC(=O)CC[C@H](NC(=O)CC[C@H](NC(=O)CCCc1ccc(I)cc1)C(=O)O)C(=O)O)C(N)=O)CSCC(=O)N[C@@H](Cc1ccc(C(=O)O)cc1)C(=O)N2C [Compound 21] ({CH2CO}-[Phe(4-COOH)][NMeK]VVSN[Trp(1-CH2CO)]YK[Trp(5-OH)][Aib]VC-X10; lactam 2-7; thioether N-13) | 1.07 nM |
| CC(C)[C@@H]1NC(=O)[C@H](C(C)C)NC(=O)[C@@H]2CCCCNC(=O)[C@@H]3CCCN3C(=O)Cn3cc(c4ccccc43)C[C@H](NC(=O)[C@H](CC(N)=O)NC(=O)[C@H](CO)NC1=O)C(=O)N[C@@H](Cc1ccc(O)cc1)C(=O)N[C@@H](CCCCN)C(=O)N[C@@H](Cc1c[nH]c3ccc(O)cc13)C(=O)NC(C)(C)C(=O)N[C@@H](C(C)C)C(=O)N[C@H](C(=O)NCC(N)=O)CSCC(=O)N[C@@H](Cc1ccc(O)cc1)C(=O)N2C [Compound 4] ({CH2CO}-Y[NMeK]VVSN[Trp(1-CH2CO)]YK[Trp(5-OH)][Aib]VCG-NH2; linker 2-7 via X2; thioether N-13) | 1.07 nM |

same assay, conditions: SPR, hGhR; Table 2 monocyclic peptides; KD calculated from ka and kd; read-out: KD

| SMILES | Kd |
| --- | --- |
| COc1ccc2[nH]cc(C[C@@H]3NC(=O)[C@H](CC(N)=O)NC(=O)[C@H](CO)NC(=O)[C@H](C(C)C)NC(=O)[C@H](C(C)C)NC(=O)[C@H](CCCCNC(=O)CC[C@H](NC(=O)CCCc4ccc(I)cc4)C(=O)O)N(C)C(=O)[C@H](Cc4ccc(O)cc4)NC(=O)CSC[C@@H](C(N)=O)NC(=O)[C@H](C(C)C)NC(=O)C(C)(C)NC(=O)[C@H](Cc4c[nH]c5ccc(O)cc45)NC(=O)[C@H](CCCCNC(=O)N4CCN(CC(=O)O)CC4)NC(=O)[C@H](Cc4ccc(O)cc4)NC3=O)c2c1 [Compound 44] ({CH2CO}-Y[NMeK]([γGlu-Butanoyl(4-(4-I-phenyl))])VVSN[Trp(5-OMe)]YK([CO-Piperazinyl(4-CH2COOH)])[Trp(5-OH)][Aib]VC-NH2; thioether N-13) | 9.67 nM |
| COc1ccc2[nH]cc(C[C@@H]3NC(=O)[C@H](CC(N)=O)NC(=O)[C@H](CO)NC(=O)[C@H](C(C)C)NC(=O)[C@H](C(C)C)NC(=O)[C@H](CCCCNC(=O)CC[C@H](NC(=O)CC[C@H](NC(=O)CCCc4ccc(I)cc4)C(=O)O)C(=O)O)N(C)C(=O)[C@H](Cc4ccc(O)cc4)NC(=O)CSC[C@@H](C(N)=O)NC(=O)[C@H](C(C)C)NC(=O)C(C)(C)NC(=O)[C@H](Cc4c[nH]c5ccc(O)cc45)NC(=O)[C@H](CCCCN)NC(=O)[C@H](Cc4ccc(C(=O)O)cc4)NC3=O)c2c1 [Compound 53] ({CH2CO}-Y[NMeK]([γGlu-γGlu-Butanoyl(4-(4-I-phenyl))])VVSN[Trp(5-OMe)][Phe(4-COOH)]K[Trp(5-OH)][Aib]VC-NH2; thioether N-13) | 3.36 nM |
| COc1ccc2[nH]cc(C[C@@H]3NC(=O)[C@H](CC(N)=O)NC(=O)[C@H](CO)NC(=O)[C@H](C(C)C)NC(=O)[C@H](C(C)C)NC(=O)[C@H](CCCCNC(=O)CC[C@H](NC(=O)CC[C@H](NC(=O)CCCc4ccc(I)cc4)C(=O)O)C(=O)O)N(C)C(=O)[C@H](Cc4ccc(C(=O)O)cc4)NC(=O)CSC[C@@H](C(N)=O)NC(=O)[C@H](C(C)C)NC(=O)C(C)(C)NC(=O)[C@H](Cc4c[nH]c5ccc(O)cc45)NC(=O)[C@H](CCCCN)NC(=O)[C@H](Cc4ccc(C(=O)O)cc4)NC3=O)c2c1 [Compound 40] ({CH2CO}-[Phe(4-COOH)][NMeK]([γGlu-γGlu-Butanoyl(4-(4-I-phenyl))])VVSN[Trp(5-OMe)][Phe(4-COOH)]K[Trp(5-OH)][Aib]VC-NH2; thioether N-13) | 2.96 nM |

From US12415834B2, “GhR-binding peptide and composition comprising same” (priority 2021, dated 2025)
